These results are taken from US11377442B2, “Small molecule agonists and antagonists of NR2F6 activity” (ZANDER THERAPEUTICS, INC., priority 2016, dated 2022).

Common to all, as to assay type: cell-based
Assay [1] deals with T1, ERα (Homo sapiens, UniProt P03372).
T1 construct: expressed in transfected cells
T1 sequence (P03372 1-595): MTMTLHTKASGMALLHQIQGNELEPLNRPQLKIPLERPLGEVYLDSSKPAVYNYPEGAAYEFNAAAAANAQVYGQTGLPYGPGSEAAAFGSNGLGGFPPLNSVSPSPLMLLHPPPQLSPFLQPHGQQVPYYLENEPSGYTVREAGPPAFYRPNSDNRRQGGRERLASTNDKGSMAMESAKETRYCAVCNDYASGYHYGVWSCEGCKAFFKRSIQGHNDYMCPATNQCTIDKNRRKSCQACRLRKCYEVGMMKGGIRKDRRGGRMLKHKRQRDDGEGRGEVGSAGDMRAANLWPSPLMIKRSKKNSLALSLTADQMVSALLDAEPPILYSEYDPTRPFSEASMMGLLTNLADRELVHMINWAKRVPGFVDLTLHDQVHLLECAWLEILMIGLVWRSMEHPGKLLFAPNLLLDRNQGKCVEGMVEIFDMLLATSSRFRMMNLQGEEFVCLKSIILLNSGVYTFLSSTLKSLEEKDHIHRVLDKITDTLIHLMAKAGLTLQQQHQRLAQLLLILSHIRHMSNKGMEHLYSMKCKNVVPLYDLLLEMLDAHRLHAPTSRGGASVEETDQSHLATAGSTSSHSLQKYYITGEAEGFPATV
Put plainly: Counterscreening, Firefly signal with ERα transient transfection (Firefly_ERa). On the technique in general: Counterscreens check selectivity or assay interference.

A further assay has as its target T2, NR2F6 (Homo sapiens, UniProt P10588).
T2 construct: expressed in transfected cells; also transient transfection
T2 sequence (P10588 1-404): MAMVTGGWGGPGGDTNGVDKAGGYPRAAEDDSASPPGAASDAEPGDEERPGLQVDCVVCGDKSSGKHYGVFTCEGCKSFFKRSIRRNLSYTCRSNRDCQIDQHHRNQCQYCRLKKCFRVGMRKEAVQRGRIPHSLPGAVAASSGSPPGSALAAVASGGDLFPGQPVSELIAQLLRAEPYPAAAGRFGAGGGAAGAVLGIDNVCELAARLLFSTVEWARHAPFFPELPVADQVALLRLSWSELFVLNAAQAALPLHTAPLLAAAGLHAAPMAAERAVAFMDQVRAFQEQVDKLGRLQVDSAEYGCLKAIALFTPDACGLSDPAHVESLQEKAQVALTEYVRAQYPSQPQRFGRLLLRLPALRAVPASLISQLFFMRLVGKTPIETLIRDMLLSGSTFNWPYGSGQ
Put plainly: NR2F6 agonist screening, Firefly signal cmpd/DMSO.

For assay [2], the target named is T1, ERα. The assay can be described thus: Counterscreening, Firefly signal with ERα transient transfection (Firefly_ERa). Particulars: 10 uM. How it is done:
The methodology for screening candidate compounds as NR2F6 agonists was as follows: For primary screening, hit criteria was ACT %>DMSO control+5*SD (DSO control) at 10 μM, or any compound with S/B>2. For rescreening, hit criteria was ACT %>DMSO control+3*SD (DSO control) in each replicate at 10 μM. For counterscreening, hit criteria was mean ACT<DMSO control+3*SD (DMSO control) with ERα transient transfection in duplicate at 10 μM.

In the next assay the test system is Renilla_ERa. Put plainly: Renilla signal in ERα counterscreen (Renilla_ERa). The note with it: for fold induction at 2 µM / fold induction at 10 µM / fold induction at 40 µM: read-out: Renilla ERalpha transient, cmpd/DMSO (mean).
The subject of another assay is Renilla. Put plainly: Renilla signal in NR2F6 agonist screening, cmpd/DMSO. The note with it: clone F4; for fold induction at 2 µM / fold induction at 10 µM / fold induction at 40 µM: Renilla, read-out: Renilla F4, cmpd/DMSO (mean).

Like-named read-outs stand apart in the source and are kept apart here.

For the compound `O=c1cccc2n1CC1CC2CN(c2nc(N3CCCC3)nc(N3CCCC3)n2)C1` (centres unmarked) [Compound 26], the “Firefly ERalpha transient, cmpd/DMSO (mean)” value on ERα [1] (2 uM) stood at 1.0; at ERα [1] (40 uM), 1.1; on ERα [2], 1.3. In addition, the “Firefly F4, cmpd/DMSO (mean)” value on NR2F6 (2 uM, clone F4) is given as 1.0; on NR2F6 (10 uM, clone F4) it was 1.1; on NR2F6 (40 uM, clone F4), 1.3. The figures for the fold induction at 2 µM in the assay on Renilla_ERa (2 uM) and with Renilla (2 uM) were 0.9 and 1, respectively. Further, the fold induction at 10 µM in the assay with Renilla_ERa (10 uM) turned out to be 1; in the assay with Renilla (10 uM) it was 0.7. The fold induction at 40 µM in the assay on Renilla_ERa (40 uM) was 1; in the assay on Renilla (40 uM), 0.7.
With `O=c1cccc2n1CC1CC2CN(c2nc(Cl)nc(NCCN3CCOCC3)n2)C1` (centres unmarked) [Compound 27], the “Firefly ERalpha transient, cmpd/DMSO (mean)” value on ERα [1] (2 uM), on ERα [1] (40 uM) and at ERα [2] was 1.2 each time. Moreover, the “Firefly F4, cmpd/DMSO (mean)” value on NR2F6 (2 uM, clone F4) is 1.0; on NR2F6 (10 uM, clone F4), 1.0; at NR2F6 (40 uM, clone F4), 1.0. The fold induction at 2 µM in the assay on Renilla_ERa (2 uM) turned out to be 1.1; in the assay with Renilla (2 uM), 0.9. For the same compound, the fold induction at 10 µM in the assay with Renilla_ERa (10 uM) came out at 1.1; in the assay on Renilla (10 uM), 0.9. The fold induction at 40 µM turned out to be 1.2 in the assay on Renilla_ERa (40 uM) and 0.8 in the assay with Renilla (40 uM).
As for `CCOC(=O)Cc1sc(Nc2nc(C)cc(C)n2)nc1-c1ccccc1` [Compound 28], the “Firefly ERalpha transient, cmpd/DMSO (mean)” value on ERα [1] (2 uM) is given as 1.0; at ERα [1] (40 uM) it was 0.6; at ERα [2] it was 0.5. For the same compound, the “Firefly F4, cmpd/DMSO (mean)” value at NR2F6 (2 uM, clone F4) worked out at 1.2; at NR2F6 (10 uM, clone F4), 0.9; at NR2F6 (40 uM, clone F4) it was 0.6. The fold induction at 2 µM in the assay with Renilla_ERa (2 uM) came to 1.2; in the assay on Renilla (2 uM), 1.1. Also, the fold induction at 10 µM with Renilla_ERa (10 uM) and with Renilla (10 uM) was 0.8 each time. Besides, the fold induction at 40 µM in the assay on Renilla_ERa (40 uM) came to 0.7; with Renilla (40 uM) it was 0.6.
For `Cc1cc(C)nc(Nc2nc(-c3ccccc3)c(CC(=O)O)s2)n1` [Compound 29], the “Firefly ERalpha transient, cmpd/DMSO (mean)” value worked out at 1.2 on ERα [1] (2 uM), 2.2 on ERα [1] (40 uM) and 1.7 at ERα [2]. Besides, the “Firefly F4, cmpd/DMSO (mean)” value at NR2F6 (2 uM, clone F4) came out at 0.9; at NR2F6 (10 uM, clone F4), 1.4; at NR2F6 (40 uM, clone F4) it was 1.5. Besides, the fold induction at 2 µM is 1.1 in the assay on Renilla_ERa (2 uM) and 0.8 in the assay on Renilla (2 uM). For the same compound, the fold induction at 10 µM is 1 with Renilla_ERa (10 uM) and 0.9 in the assay on Renilla (10 uM). Further, the fold induction at 40 µM in the assay on Renilla_ERa (40 uM) is 1.1; with Renilla (40 uM), 0.8.
Consider `Cc1cc(-c2ccccc2)nc(Nc2nc(-c3ccccc3)c(CC(=O)O)s2)n1` [Compound 30], for which the entries for the “Firefly ERalpha transient, cmpd/DMSO (mean)” value at ERα [1] (2 uM), at ERα [1] (40 uM) and on ERα [2] were 1.1, 1.3 and 1.5, respectively. Moreover, the “Firefly F4, cmpd/DMSO (mean)” value on NR2F6 (2 uM, clone F4) is given as 1.5; at NR2F6 (10 uM, clone F4), 1.6; on NR2F6 (40 uM, clone F4), 1.8. The fold induction at 2 µM in the assay with Renilla_ERa (2 uM) and in the assay on Renilla (2 uM) was 1.2 in each case. The fold induction at 10 µM in the assay with Renilla_ERa (10 uM) stood at 1.2; with Renilla (10 uM), 2.3. The fold induction at 40 µM with Renilla_ERa (40 uM) turned out to be 1; with Renilla (40 uM), 3.4.
On to `O=c1cccc2n1CC1CC2CN(c2nc(N3CCOCC3)nc(N3CCOCC3)n2)C1` (centres unmarked) [Compound 31], for which the figures for the “Firefly ERalpha transient, cmpd/DMSO (mean)” value on ERα [1] (2 uM), on ERα [1] (40 uM) and on ERα [2] were 0.8, 1.0 and 1.2, respectively. Besides, the “Firefly F4, cmpd/DMSO (mean)” value amounted to 0.8 at NR2F6 (2 uM, clone F4); 1.0 on NR2F6 (10 uM, clone F4); 0.9 on NR2F6 (40 uM, clone F4). For the same compound, the fold induction at 2 µM in the assay with Renilla_ERa (2 uM) and with Renilla (2 uM) was 1 in each case. Moreover, the fold induction at 10 µM in the assay with Renilla_ERa (10 uM) worked out at 1.1; with Renilla (10 uM), 1. For the same compound, the results for the fold induction at 40 µM in the assay with Renilla_ERa (40 uM) and in the assay with Renilla (40 uM) were 1.1 and 1, respectively.
In the case of `O=c1cccc2n1CC1CC2CN(c2nc(NCCC3=CCCCC3)nc(N3CCCC3)n2)C1` (centres unmarked) [Compound 32], the “Firefly ERalpha transient, cmpd/DMSO (mean)” value came out at 1.2 on ERα [1] (2 uM), 0.7 on ERα [1] (40 uM) and 1.2 at ERα [2]. Further, the “Firefly F4, cmpd/DMSO (mean)” value is given as 0.8 on NR2F6 (2 uM, clone F4); 1.3 on NR2F6 (10 uM, clone F4); 0.8 at NR2F6 (40 uM, clone F4). Also, the fold induction at 2 µM with Renilla_ERa (2 uM) and with Renilla (2 uM) was 1.2 in each case. Besides, the fold induction at 10 µM in the assay with Renilla_ERa (10 uM) was 1.3; in the assay on Renilla (10 uM), 1.4. In addition, the fold induction at 40 µM is 1.1 with Renilla_ERa (40 uM) and 1 with Renilla (40 uM).
For `O=c1cccc2n1CCN(c1nc(NCC3CCCO3)nc(N3CCOCC3)n1)C2` (centres unmarked) [Compound 33], the “Firefly ERalpha transient, cmpd/DMSO (mean)” value amounted to 1.3 at ERα [1] (2 uM), 1.4 on ERα [1] (40 uM) and 1.3 at ERα [2]. Also, the “Firefly F4, cmpd/DMSO (mean)” value on NR2F6 (2 uM, clone F4) amounted to 0.8; on NR2F6 (10 uM, clone F4), 1.0; at NR2F6 (40 uM, clone F4) it was 1.1. Further, the figures for the “Renilla ERalpha transient, cmpd/DMSO (mean)” value in the assay with Renilla_ERa (2 uM), in the assay with Renilla_ERa (10 uM) and in the assay on Renilla_ERa (40 uM) were 1.2, 1.1 and 1.3, respectively. Besides, the “Renilla F4, cmpd/DMSO (mean)” value in the assay on Renilla (2 uM) was 1.2; in the assay on Renilla (10 uM), 1.3; in the assay on Renilla (40 uM), 1.4.
Take `CC(C)Nc1nc(N2CCOCC2)nc(N2CCn3c(cccc3=O)C2)n1` [Compound 34]: the “Firefly ERalpha transient, cmpd/DMSO (mean)” value was determined as 1.1 on ERα [1] (2 uM), 1.2 on ERα [1] (40 uM) and 1.2 on ERα [2]. Moreover, the “Firefly F4, cmpd/DMSO (mean)” value at NR2F6 (2 uM, clone F4) is on record as 0.9; at NR2F6 (10 uM, clone F4), 0.8; at NR2F6 (40 uM, clone F4) it was 0.9. The “Renilla ERalpha transient, cmpd/DMSO (mean)” value was determined as 1.0 with Renilla_ERa (2 uM), 1.1 in the assay with Renilla_ERa (10 uM) and 1.1 in the assay on Renilla_ERa (40 uM). Also, the “Renilla F4, cmpd/DMSO (mean)” value in the assay with Renilla (2 uM) is recorded as 0.9; with Renilla (10 uM), 1.1; in the assay with Renilla (40 uM) it was 0.9.
`CC(C)Nc1nc(N2CCCC2)nc(N2CCn3c(cccc3=O)C2)n1` [Compound 35]: the “Firefly ERalpha transient, cmpd/DMSO (mean)” value at ERα [1] (2 uM) was 1.0; on ERα [1] (40 uM), 1.3; at ERα [2], 0.9. The “Firefly F4, cmpd/DMSO (mean)” value at NR2F6 (2 uM, clone F4) is reported as 1.1; at NR2F6 (10 uM, clone F4), 1.0; at NR2F6 (40 uM, clone F4) it was 0.8. Also, the entries for the “Renilla ERalpha transient, cmpd/DMSO (mean)” value in the assay on Renilla_ERa (2 uM), with Renilla_ERa (10 uM) and in the assay on Renilla_ERa (40 uM) were 1.0, 1.0 and 1.1, respectively. Moreover, the “Renilla F4, cmpd/DMSO (mean)” value with Renilla (2 uM) came out at 1.1; in the assay with Renilla (10 uM) it was 0.9; in the assay with Renilla (40 uM) it was 0.9.
For the compound `CCOC(=O)c1cnc2c(C)cc(C)cc2c1NCCCN1CCCCC1` [Compound Z8], the “Firefly ERalpha transient, cmpd/DMSO (mean)” value came out at 2.2 on ERα [1] (Table 15, 2 uM); 0.4 on ERα [1] (Table 15, 40 uM); 2.4 at ERα [2] (Table 15). The “Firefly F4, cmpd/DMSO (mean)” value at NR2F6 (Table 15, 2 uM) worked out at 2.6; on NR2F6 (Table 15, 10 uM), 4.0; at NR2F6 (Table 15, 40 uM), 0.7. In addition, the fold induction at 2 µM in the assay with Renilla_ERa (Table 15, 2 uM) was 1.4. Also, the fold induction at 10 µM with Renilla_ERa (Table 15, 10 uM) came out at 1.4.
